Measured values from patent US4136116A, “Tricyclic compounds” (Hoffmann-La Roche Inc., priority 1975, dated 1979).
Where a name gives a salt, the structure may show the parent alone.

The compounds below were run on salivation in rabbits (assay: Salivation inhibition in rabbits (pilocarpine-increased salivation; anticholinergic action)). Details: light urethane narcosis, 3 mg/kg i.v., pilocarpine 5 mg/kg s.c.
Format: in vivo
Experimental: The low anticholinergic action can be shown by the lack of salivation inhibition in rabbits: The salivation in rabbits under light urethane narcosis was increased by pilocarpine injection (5 mg/kg. s.c.) and the amount of saliva was measured at 5-minute intervals. The inhibition of salivation is expressed as a percentage based upon the salivation of animals which only received pilocarpine.

Structure (SMILES)	% Inhibition of Salivation [%]
Cc1cccc2c1C=Cc1ccccc1C2=CCCN(C)C.Cl [1-methyl-5-(3-dimethylaminopropylidene)-5H-dibenzo[a,d]cycloheptene hydrochloride]	60
CNCCC=C1c2ccccc2C=Cc2c(C)cccc21.Cl [1-methyl-5-(3-methylaminopropylidene)-5H-dibenzo[a,d]cycloheptene hydrochloride]	60
Cc1cccc2c1CCc1ccccc1C2CCCN(C)C.Cl (stereo not shown) [1-methyl-10,11-dihydro-5-(3-dimethylaminopropyl)-5H-dibenzo[a,d]cycloheptene hydrochloride]	50
CNCCCC1c2ccccc2CCc2c(C)cccc21.Cl (stereo not shown) [1-methyl-10,11-dihydro-5-(3-methylaminopropyl)-5H-dibenzo[a,d]cycloheptene hydrochloride]	40
Cc1cccc2c1C=Cc1ccccc1C2=CCC[N+](C)(C)[O-] [1-methyl-5-(3-dimethylaminopropylidene)-5H-dibenzo[a,d]cycloheptene N-oxide hydrochloride]	14
Cc1cccc2c1CCc1ccccc1C2=CCCN(C)C.Cl [1-methyl-10,11-dihydro-5-(3-dimethylaminopropylidene)-5H-dibenzo[a,d]cycloheptene hydrochloride]	50
CNCCC=C1c2ccccc2CCc2c(C)cccc21.Cl [1-methyl-10,11-dihydro-5-(3-methylaminopropylidene)-5H-dibenzo [a,d]cycloheptene hydrochloride]	50
